{
  "source": "ChEMBL document CHEMBL3885881",
  "about": "“DrugMatrix”",
  "organism": "Rattus norvegicus",
  "assay": "DrugMatrix - Regimen: Daily Repeat",
  "type": "toxicity, organism-based, Sprague-Dawley",
  "design": "regimen Daily Repeat, gender Male, age 6-8 weeks",
  "details": "in vivo, po, route oral GAVAGE, vehicle 100 % WATER",
  "key": {"[1]": {"details": "0 mg/kg, 72 h, tissue Blood, dose level Control, time 3 day"}, "[2]": {"details": "0 mg/kg, 72 h, tissue Plasma, dose level Control, time 3 day"}, "[3]": {"details": "0 mg/kg, 120 h, tissue Blood, dose level Control, time 5 day"}, "[4]": {"details": "0 mg/kg, 120 h, tissue Plasma, dose level Control, time 5 day"}, "[5]": {"details": "1 mg/kg, 72 h, tissue Blood, dose level Low, time 3 day"}, "[6]": {"details": "1 mg/kg, 72 h, tissue Plasma, dose level Low, time 3 day"}},
  "data": [
    {"sequence": "THIMEROSAL", "values": [
      {"measurement": "ABSOLUTE BASOPHIL", "setting": "[1]", "result": 0, "unit": "CELLS/uL"},
      {"measurement": "ABSOLUTE EOSINOPHIL", "setting": "[1]", "result": 123.17, "unit": "CELLS/uL"},
      {"measurement": "ABSOLUTE MONOCYTE", "setting": "[1]", "result": 66.17, "unit": "CELLS/uL"},
      {"measurement": "ABSOLUTE SEGMENTED NEUTROPHIL", "setting": "[1]", "result": 1149.5, "unit": "CELLS/uL"},
      {"measurement": "BASOPHIL", "setting": "[1]", "result": 0, "unit": "%"},
      {"measurement": "EOSINOPHIL", "setting": "[1]", "result": 0.83, "unit": "%"},
      {"measurement": "ERYTHROCYTE COUNT", "setting": "[1]", "result": 5.26, "unit": "x10E6/uL"},
      {"measurement": "HEMATOCRIT", "setting": "[1]", "result": 33.07, "unit": "%"},
      {"measurement": "LEUKOCYTE COUNT", "setting": "[1]", "result": 14.02, "unit": "x10E3/uL"},
      {"measurement": "LYMPHOCYTE", "setting": "[1]", "result": 90.17, "unit": "%"},
      {"measurement": "MEAN CORPUSCULAR HEMOGLOBIN", "setting": "[1]", "result": 25.62, "unit": "pg"},
      {"measurement": "MEAN CORPUSCULAR HEMOGLOBIN CONCENTRATION", "setting": "[1]", "result": 40.65, "unit": "G/DL"},
      {"measurement": "MEAN CORPUSCULAR VOLUME", "setting": "[1]", "result": 63, "unit": "fL"},
      {"measurement": "MONOCYTE", "setting": "[1]", "result": 0.5, "unit": "%"},
      {"measurement": "NEUTROPHIL", "setting": "[1]", "result": 8.5, "unit": "%"},
      {"measurement": "NUCLEATED RED BLOOD CELLS", "setting": "[1]", "result": "0.17 /100WBC"},
      {"measurement": "PLATELET COUNT", "setting": "[1]", "result": 1142.83, "unit": "x10E3/uL"},
      {"measurement": "ALANINE AMINOTRANSFERASE", "setting": "[2]", "result": 45.17, "unit": "u/L"},
      {"measurement": "ALKALINE PHOSPHATASE", "setting": "[2]", "result": 340.17, "unit": "u/L"},
      {"measurement": "ASPARTATE AMINOTRANSFERASE", "setting": "[2]", "result": 77.33, "unit": "u/L"},
      {"measurement": "BLOOD UREA NITROGEN", "setting": "[2]", "result": 14.67, "unit": "mg/dL"},
      {"measurement": "CREATINE PHOSPHOKINASE", "setting": "[2]", "result": 263.67, "unit": "u/L"},
      {"measurement": "CREATININE", "setting": "[2]", "result": 0.15, "unit": "mg/dL"},
      {"measurement": "LACTATE DEHYDROGENASE", "setting": "[2]", "result": 230, "unit": "u/L"},
      {"measurement": "PHOSPHORUS", "setting": "[2]", "result": 11.8, "unit": "mg/dL"},
      {"measurement": "POTASSIUM", "setting": "[2]", "result": 5.91, "unit": "MEQ/L"},
      {"measurement": "TOTAL BILIRUBIN", "setting": "[2]", "result": 0.22, "unit": "mg/dL"},
      {"measurement": "TOTAL PROTEIN", "setting": "[2]", "result": 5.7, "unit": "G/DL"},
      {"measurement": "URIC ACID", "setting": "[2]", "result": 1.35, "unit": "mg/dL"},
      {"measurement": "ABSOLUTE BASOPHIL", "setting": "[3]", "result": 0, "unit": "CELLS/uL"},
      {"measurement": "ABSOLUTE EOSINOPHIL", "setting": "[3]", "result": 125, "unit": "CELLS/uL"},
      {"measurement": "ABSOLUTE LYMPHOCYTE", "setting": "[3]", "result": 13809, "unit": "CELLS/uL"},
      {"measurement": "ABSOLUTE MONOCYTE", "setting": "[3]", "result": 351, "unit": "CELLS/uL"},
      {"measurement": "ABSOLUTE SEGMENTED NEUTROPHIL", "setting": "[3]", "result": 1581.67, "unit": "CELLS/uL"},
      {"measurement": "BASOPHIL", "setting": "[3]", "result": 0, "unit": "%"},
      {"measurement": "EOSINOPHIL", "setting": "[3]", "result": 0.67, "unit": "%"},
      {"measurement": "ERYTHROCYTE COUNT", "setting": "[3]", "result": 5.53, "unit": "x10E6/uL"},
      {"measurement": "HEMATOCRIT", "setting": "[3]", "result": 34.83, "unit": "%"},
      {"measurement": "LEUKOCYTE COUNT", "setting": "[3]", "result": 15.87, "unit": "x10E3/uL"},
      {"measurement": "LYMPHOCYTE", "setting": "[3]", "result": 87.5, "unit": "%"},
      {"measurement": "MEAN CORPUSCULAR HEMOGLOBIN", "setting": "[3]", "result": 25.25, "unit": "pg"},
      {"measurement": "MEAN CORPUSCULAR HEMOGLOBIN CONCENTRATION", "setting": "[3]", "result": 40.08, "unit": "G/DL"},
      {"measurement": "MEAN CORPUSCULAR VOLUME", "setting": "[3]", "result": 63.05, "unit": "fL"},
      {"measurement": "MONOCYTE", "setting": "[3]", "result": 2.17, "unit": "%"},
      {"measurement": "NEUTROPHIL", "setting": "[3]", "result": 9.67, "unit": "%"},
      {"measurement": "NUCLEATED RED BLOOD CELLS", "setting": "[3]", "result": "0 /100WBC"},
      {"measurement": "PLATELET COUNT", "setting": "[3]", "result": 1044, "unit": "x10E3/uL"},
      {"measurement": "ALANINE AMINOTRANSFERASE", "setting": "[4]", "result": 50.67, "unit": "u/L"},
      {"measurement": "ALKALINE PHOSPHATASE", "setting": "[4]", "result": 395, "unit": "u/L"},
      {"measurement": "ASPARTATE AMINOTRANSFERASE", "setting": "[4]", "result": 86, "unit": "u/L"},
      {"measurement": "CARBON DIOXIDE", "setting": "[4]", "result": 29.33, "unit": "mmol/L"},
      {"measurement": "CHOLESTEROL", "setting": "[4]", "result": 71.33, "unit": "mg/dL"},
      {"measurement": "CREATINE PHOSPHOKINASE", "setting": "[4]", "result": 323.17, "unit": "u/L"},
      {"measurement": "CREATININE", "setting": "[4]", "result": 0.18, "unit": "mg/dL"},
      {"measurement": "LACTATE DEHYDROGENASE", "setting": "[4]", "result": 389.5, "unit": "u/L"},
      {"measurement": "LIPASE", "setting": "[4]", "result": 9.83, "unit": "u/L"},
      {"measurement": "PHOSPHORUS", "setting": "[4]", "result": 11.35, "unit": "mg/dL"},
      {"measurement": "POTASSIUM", "setting": "[4]", "result": 6.39, "unit": "MEQ/L"},
      {"measurement": "TOTAL BILIRUBIN", "setting": "[4]", "result": 0.18, "unit": "mg/dL"},
      {"measurement": "TOTAL PROTEIN", "setting": "[4]", "result": 6.1, "unit": "G/DL"},
      {"measurement": "URIC ACID", "setting": "[4]", "result": 1.52, "unit": "mg/dL"},
      {"measurement": "ABSOLUTE BASOPHIL", "setting": "[5]", "result": 0, "unit": "CELLS/uL"},
      {"measurement": "ABSOLUTE EOSINOPHIL", "setting": "[5]", "result": 68, "unit": "CELLS/uL"},
      {"measurement": "ABSOLUTE LYMPHOCYTE", "setting": "[5]", "result": 13921, "unit": "CELLS/uL"},
      {"measurement": "ABSOLUTE MONOCYTE", "setting": "[5]", "result": 100.67, "unit": "CELLS/uL"},
      {"measurement": "ABSOLUTE SEGMENTED NEUTROPHIL", "setting": "[5]", "result": 710.33, "unit": "CELLS/uL"},
      {"measurement": "BASOPHIL", "setting": "[5]", "result": 0, "unit": "%"},
      {"measurement": "EOSINOPHIL", "setting": "[5]", "result": 0.33, "unit": "%"},
      {"measurement": "ERYTHROCYTE COUNT", "setting": "[5]", "result": 5.23, "unit": "x10E6/uL"},
      {"measurement": "HEMATOCRIT", "setting": "[5]", "result": 33.4, "unit": "%"},
      {"measurement": "HEMOGLOBIN", "setting": "[5]", "result": 13.6, "unit": "G/DL"},
      {"measurement": "LEUKOCYTE COUNT", "setting": "[5]", "result": 14.8, "unit": "x10E3/uL"},
      {"measurement": "LYMPHOCYTE", "setting": "[5]", "result": 94.33, "unit": "%"},
      {"measurement": "MEAN CORPUSCULAR HEMOGLOBIN", "setting": "[5]", "result": 26.03, "unit": "pg"},
      {"measurement": "MEAN CORPUSCULAR HEMOGLOBIN CONCENTRATION", "setting": "[5]", "result": 40.73, "unit": "G/DL"},
      {"measurement": "MEAN CORPUSCULAR VOLUME", "setting": "[5]", "result": 63.97, "unit": "fL"},
      {"measurement": "MONOCYTE", "setting": "[5]", "result": 0.67, "unit": "%"},
      {"measurement": "NEUTROPHIL", "setting": "[5]", "result": 4.67, "unit": "%"},
      {"measurement": "NUCLEATED RED BLOOD CELLS", "setting": "[5]", "result": "0 /100WBC"},
      {"measurement": "PLATELET COUNT", "setting": "[5]", "result": 1138.67, "unit": "x10E3/uL"},
      {"measurement": "ALANINE AMINOTRANSFERASE", "setting": "[6]", "result": 49, "unit": "u/L"},
      {"measurement": "ALKALINE PHOSPHATASE", "setting": "[6]", "result": 344.33, "unit": "u/L"},
      {"measurement": "ASPARTATE AMINOTRANSFERASE", "setting": "[6]", "result": 77, "unit": "u/L"},
      {"measurement": "BLOOD UREA NITROGEN", "setting": "[6]", "result": 12.33, "unit": "mg/dL"},
      {"measurement": "CHLORIDE", "setting": "[6]", "result": 100, "unit": "MEQ/L"},
      {"measurement": "CHOLESTEROL", "setting": "[6]", "result": 82.33, "unit": "mg/dL"},
      {"measurement": "CREATINE PHOSPHOKINASE", "setting": "[6]", "result": 236.33, "unit": "u/L"},
      {"measurement": "CREATININE", "setting": "[6]", "result": 0.13, "unit": "mg/dL"},
      {"measurement": "GLUCOSE", "setting": "[6]", "result": 155, "unit": "mg/dL"},
      {"measurement": "LACTATE DEHYDROGENASE", "setting": "[6]", "result": 196.33, "unit": "u/L"},
      {"measurement": "PHOSPHORUS", "setting": "[6]", "result": 11.57, "unit": "mg/dL"},
      {"measurement": "POTASSIUM", "setting": "[6]", "result": 6.96, "unit": "MEQ/L"}
    ]}
  ]
}
